Laboratory results from patent publication US8883227B2, “Plant pathogen inhibitor combinations and methods of use” (priority 2009, dated 2014).

Experiments:
Assay type in all cases: in vivo
Sphaerotheca fuliginea = test: Greenhouse cucumber powdery mildew test, foliar spray alone or in tank mix
Description: The studies were conducted in a green house. Experimental design of the studies for synergism followed the Burpee and Latin (2008). Powdery mildew, caused by Sphaerotheca fuliginea, was used for investigating the efficacy of the treatments.
Cucumber seeds cv. “SMR 58” (Irwin & Sons Ag Supply, Inc. Cheshire, Oreg.) were grown in plastic 4-inch pots with potting soil mix (Rod McLellan Company, Marysville, Ohio). The plants were treated at 2-true leaf stage. The compounds at various rates were sprayed with a 2-oz mist sprayer at 2 ml per plant at upper side and 1 ml at lower side of the leaves. The treated plants were left for 3-4 hours under florescent light to dry before inoculation.
A conidia suspension of Sphaerotheca fuliginea, the causal agent of powdery mildew disease on cucumber, was prepared by cutting diseases leaves of the cucumber plants that are served for conservation of inoculum. The suspension were adjusted to 2.0×10^5 conidia per ml and applied with a 2-oz mist sprayer at 2 ml per plant on the upper side of the leaves. The inoculated plants were placed in a greenhouse and the treatments were arranged in randomized complete blocks with 4 to 6 replicates at 25° C. to 30° C.
The disease severity (percentage area covered with colonies) of the first leaves were rated according to James (1971). Disease severity and percentage control were analyzed with analysis of variance (ANOVA) and means of the treatments were compared with Fisher's Protected Least Difference (LSD) at p=0.05 level. Synergetic effect was calculated and analyzed with Limpel's formula (Limpel et al., 1962; Richer, 1987).

Rhizoctonia solani = test: Soybean seed treatment (seed coating) in infested soil, damping off; conditions: inoculated
Description: The experiments described below were conducted with soybean but similar procedures are used with other crops such as cereals, corn, cotton, and potatoes.
The experiments were conducted in a greenhouse following the procedure developed by Hwang et al. (2006). The isolate of Rhizoctonia solani was grown on potato dextrose agar plates and cultured for 5 days for inoculating oat or wheat grain. One liter of grain was soaked overnight at room temperature (25° C.) and rinsed three times with tape water. The 8×12-in autoclave bags were filled with the grain up to ⅓ full were autoclaved at 121° C. for 15 min. The autoclaved grain then was then inoculated with 5 pieces of 1×1 cm plug of the 5-day culture of R. solani per bag and cultured for 5 days at room temperature (25° C.). The bags were left open in laminar flow hood to let the grain completely dry.
The blank seed sample of 10 g to be coated was placed in a flask. Coating agent SEPIRET® 1171-O (Becker Underwood Ltd., Ames, Iowa) was put into the flasks together with the compound of interest, and the flask was shaken vigorously so that the seed picked up the compound. The procedure was repeated with fresh seed sample of cvs. “White Lion” (Kitazawa Seed Co., Oakland, Calif.) or “Viking 2265” (Johnny's Selected Seeds, Winslow, Me.) in the same flask for the treatments. After the seeds were coated, they were left to air dry before planting.
To prepare the soil, five hundred milliliters of the dried grains with inoculum were blended for 15 seconds three times and the powder was mixed with sterile sand at 1:1 (v/v) to dilute the inoculum. The sand mix was further used to prepare soil mix at various proportions 1:350 to 1:800 (inoculum:soil) for soybean to generate various disease levels in repeated tests.
The coated seeds were planted in the pots with infested soil. There were three replicates of each treatment which were arranged in a complete randomized block design and placed at 25 to 30° C. in a greenhouse.
After 10 to 20 days, depending on disease pressure and temperature, emergence of each treatment was rated and compared. Biomass was measured by weighing the above-ground portion which was measured for each replicate of the plant material.

Bremia lactucae = test: Lettuce downy mildew test on cotyledons
Description: Synergy between MBI-106 and acibenzolar-S-methyl or mefenoxam which control a specific class of pathogens Oomycetes was tested with lettuce downy mildew following Su et al. (2004).
To prepare inoculum of downy mildew, lettuce seeds were placed on […] petri-dishes with about 20-30 seeds in each and watered with sterile water, then supplied with ½ strength of Hoagland's solution after germination. The petri dishes were placed at 20° C. growth chamber for 7-10 days. The spores of Bremia lactucae was inoculated on lettuce cotyledons and cultured for 7-10 days at 15° C. for sporulation to occur. Cotyledons with sporulation were cut off and placed in a falcon tube with sterile water. The cotyledons were vortexed for 15 seconds three times and filtered through a 100-uμm mesh to collect sporangia. The solution was adjusted to 0.5 to 1.0×10^5 spores/ml for inoculation.
Four test plants were seeded in each 2-in pots and then placed at 20° C. for 7-10 days to grow cotyledons. Plants were ready for test when the first true leaf was emerging.
The lettuce plants were treated with the materials and left to dry or overnight. Then the plants were inoculated with sporangial solution. The treatments were arranged in a randomized complete block design with four replicates. The inoculated plants were placed in darkness in growth chamber for 48 hours and then incubated under 12-h light period at 15° C. Eight to ten days after inoculation, the cotyledons were rated for disease severity (percentage area covered with sporangiophores).

[1] = Example IV, azoxystrobin 0.25 ug/ml alone
[2] = Example IV, azoxystrobin 0.5 ug/ml alone
[3] = Example IV, azoxystrobin 1.0 ug/ml alone
[4] = Example IV, azoxystrobin 5.0 ug/ml alone
[5] = Example IV, azoxystrobin 10.0 ug/ml alone
[6] = Example XI (Test II), azoxystrobin 0.1 ug/ml alone
[7] = Example XI (Test II), azoxystrobin 0.25 ug/ml alone
[8] = Example XI (Test II), azoxystrobin 0.5 ug/ml alone
[9] = Example VIII, azoxystrobin 0.0298 g/kg alone
[10] = Example IX, fludioxonil 0.0596 g ai/kg alone
[11] = Example I, myclobutanil 0.05 ug/ml alone
[12] = Example I, myclobutanil 0.1 ug/ml alone
[13] = Example I, myclobutanil 0.25 ug/ml alone
[14] = Example II (repeated test), myclobutanil 0.05 ug/ml alone
[15] = Example II (repeated test), myclobutanil 0.1 ug/ml alone
[16] = Example II (repeated test), myclobutanil 0.25 ug/ml alone
[17] = Example V, triflumizole 0.25 ug/ml alone
[18] = Example V, triflumizole 0.5 ug/ml alone
[19] = Example V, triflumizole 1.0 ug/ml alone
[20] = Example VII, mefenoxam 37.5 ug/ml alone
[21] = Example VII, mefenoxam 75 ug/ml alone
[22] = Example VII, mefenoxam 150 ug/ml alone
[23] = Example X, propiconazole 1.0 ug/ml alone
[24] = Example III, quinoxyfen 0.01 ug/ml alone
[25] = Example III, quinoxyfen 0.05 ug/ml alone
[26] = Example VI, acibenzolar-S-methyl 25 ug/ml alone

CO/C=C(/C(=O)OC)c1ccccc1Oc1cc(Oc2ccccc2C#N)ncn1 [azoxystrobin]
Control (%) (Sphaerotheca fuliginea; [1]): 51.8%
Severity (%) (Sphaerotheca fuliginea; [1]): 45.0%
Control (%) (Sphaerotheca fuliginea; [2]): 48.0%
Severity (%) (Sphaerotheca fuliginea; [2]): 48.8%
Control (%) (Sphaerotheca fuliginea; [3]): 68.1%
Severity (%) (Sphaerotheca fuliginea; [3]): 30.0%
Control (%) (Sphaerotheca fuliginea; [4]): 94.3%
Severity (%) (Sphaerotheca fuliginea; [4]): 5.3%
Control (%) (Sphaerotheca fuliginea; [5]): 87.6%
Severity (%) (Sphaerotheca fuliginea; [5]): 11.3%
Control (%) (Sphaerotheca fuliginea; [6]): 21.6%
Severity (%) (Sphaerotheca fuliginea; [6]): 72.5%
Control (%) (Sphaerotheca fuliginea; [7]): 13.5%
Severity (%) (Sphaerotheca fuliginea; [7]): 80.0%
Control (%) (Sphaerotheca fuliginea; [8]): 62.2%
Severity (%) (Sphaerotheca fuliginea; [8]): 35.0%
Control (%) (Rhizoctonia solani; [9]): 81.5%
Emergence (%) (Rhizoctonia solani; [9]): 86.4%

N#Cc1c[nH]cc1-c1cccc2c1OC(F)(F)O2 [fludioxonil]
Bio mass (Rhizoctonia solani; [10]): 8.7 g
Control (%) (Rhizoctonia solani; [10]): 28.4%
Emergence (%) (Rhizoctonia solani; [10]): 35.8%

CCCCC(C#N)(Cn1cncn1)c1ccc(Cl)cc1 (centres unmarked) [myclobutanil]
Control (%) (Sphaerotheca fuliginea; [11]): 2.5%
Severity (%) (Sphaerotheca fuliginea; [11]): 95.8%
Control (%) (Sphaerotheca fuliginea; [12]): 3.2%
Severity (%) (Sphaerotheca fuliginea; [12]): 95.0%
Control (%) (Sphaerotheca fuliginea; [13]): 83.1%
Severity (%) (Sphaerotheca fuliginea; [13]): 16.7%
Control (%) (Sphaerotheca fuliginea; [14]): −2.8%
Severity (%) (Sphaerotheca fuliginea; [14]): 93.8%
Control (%) (Sphaerotheca fuliginea; [15]): 12.2%
Severity (%) (Sphaerotheca fuliginea; [15]): 80.0%
Control (%) (Sphaerotheca fuliginea; [16]): 41.3%
Severity (%) (Sphaerotheca fuliginea; [16]): 53.8%

CCCOC/C(=N\c1ccc(Cl)cc1C(F)(F)F)n1ccnc1 [triflumizole]
Control (%) (Sphaerotheca fuliginea; [17]): 2.6%
Severity (%) (Sphaerotheca fuliginea; [17]): 95.0%
Control (%) (Sphaerotheca fuliginea; [18]): 11.5%
Severity (%) (Sphaerotheca fuliginea; [18]): 86.3%
Control (%) (Sphaerotheca fuliginea; [19]): 20.5%
Severity (%) (Sphaerotheca fuliginea; [19]): 77.5%

COCC(=O)N(c1c(C)cccc1C)[C@H](C)C(=O)OC [mefenoxam]
Control (%) (Bremia lactucae; [20]): −2.6%
Severity (%) (Bremia lactucae; [20]): 89.3%
Control (%) (Bremia lactucae; [21]): 37.7%
Severity (%) (Bremia lactucae; [21]): 54.2%
Control (%) (Bremia lactucae; [22]): 48.5%
Severity (%) (Bremia lactucae; [22]): 44.8%

CCCC1COC(Cn2cncn2)(c2ccc(Cl)cc2Cl)O1 (centres unmarked) [propiconazole]
Control (%) (Sphaerotheca fuliginea; [23]): 1.3%
Severity (%) (Sphaerotheca fuliginea; [23]): 97.5%

Fc1ccc(Oc2ccnc3cc(Cl)cc(Cl)c23)cc1 [quinoxyfen, 5,7-dichloro-4-quinolyl 4-fluorophenyl ether]
Control (%) (Sphaerotheca fuliginea; [24]): 1.33%
Severity (%) (Sphaerotheca fuliginea; [24]): 90.0%
Control (%) (Sphaerotheca fuliginea; [25]): 66.95%
Severity (%) (Sphaerotheca fuliginea; [25]): 30.0%

CSC(=O)c1cccc2nnsc12 [acibenzolar-S-methyl]
Control (%) (Bremia lactucae; [26]): 23.4%
Severity (%) (Bremia lactucae; [26]): 68.9%
